In patent US10105357B2, “Indication of antibiotic drugs for preparation of cancer inhibition pharmaceutical composition” (LAUNX BIOMEDICAL CO., LTD., priority 2014, dated 2018):
Structures can show the parent of a compound that is named as a salt. Where two headings read alike, the source gives them in different places.

Assays:
Assay type in all cases: cell-based, human
cancer cell lines = assay: Cell viability analysis (WST-1) on cancer cell lines; conditions: drug 10 μM, 72 hours, WST-1; Table 3
[1] = test system: HI650 (Lung Adenocarcinoma); assay: Cell viability analysis, lung cancer HI650; conditions: Homo sapiens, NCI-H1650, 72 h
[2] = test system: A549 (Lung Adenocarcinoma); assay: Cell viability analysis, lung cancer A549; conditions: Homo sapiens, A549, 72 h
[3] = test system: AGS (Gastric Adenocarcinoma); assay: Cell viability analysis, gastric cancer AGS; conditions: Homo sapiens, 72 h
[4] = test system: MKN-45 (Gastric Adenocarcinoma); assay: Cell viability analysis, gastric cancer MKN-45; conditions: Homo sapiens, MKN-45, 72 h
[5] = test system: HepG2 (Hepatocellular Carcinoma); assay: Cell viability analysis, hepatic cancer HepG2; conditions: Homo sapiens, HepG2, 72 h
[6] = test system: LoVo (Colorectal Adenocarcinoma); assay: Cell viability analysis, colon cancer LoVo; conditions: Homo sapiens, LoVo, 72 h, read-out: cell viability (survival rate), LoVo, drug 10 μM, 72 hours, WST-1, OD450 nm
[7] = test system: A375 (Amelanotic Melanoma); assay: Cell viability analysis, skin cancer A375; conditions: Homo sapiens, A-375, 72 h
[8] = test system: HeLa (Cervix Adenocarcinoma); assay: Cell viability analysis, cervical cancer HeLa; conditions: Homo sapiens, HeLa, 72 h
[9] = test system: PC3 (p53−) (Prostate Adenocarcinoma); assay: Cell viability analysis, prostate cancer PC3; conditions: Homo sapiens, 72 h
[10] = test system: TSGH-8301 (Urinary Bladder Carcinoma); assay: Cell viability analysis, bladder cancer TSGH-8301; conditions: Homo sapiens, 72 h
[11] = test system: MCF7 (Mammary Gland, Adenocarcinoma); assay: Cell viability analysis, breast cancer MCF7; conditions: Homo sapiens, MCF7, 72 h
[12] = test system: HL-60 (Acute Promyelocytic Leukemia); assay: Cell viability analysis, leukemia HL-60; conditions: Homo sapiens, HL-60, 72 h
[13] = drug 10 μM, 72 hours, WST-1, OD450 nm, read-out: cell viability (survival rate), H1650
[14] = drug 10 μM, 72 hours, WST-1, OD450 nm, read-out: cell viability (survival rate), A549
[15] = drug 10 μM, 72 hours, WST-1, OD450 nm, read-out: cell viability (survival rate), AGS
[16] = drug 10 μM, 72 hours, WST-1, OD450 nm, read-out: cell viability (survival rate), MKN-45
[17] = drug 10 μM, 72 hours, WST-1, OD450 nm, read-out: cell viability (survival rate), HepG2
[18] = drug 10 μM, 72 hours, WST-1, OD450 nm, read-out: cell viability (survival rate), A375
[19] = drug 10 μM, 72 hours, WST-1, OD450 nm, read-out: cell viability (survival rate), HeLa
[20] = drug 10 μM, 72 hours, WST-1, OD450 nm, read-out: cell viability (survival rate), PC3
[21] = drug 10 μM, 72 hours, WST-1, OD450 nm, read-out: cell viability (survival rate), TSGH
[22] = drug 10 μM, 72 hours, WST-1, OD450 nm, read-out: cell viability (survival rate), MCF7
[23] = drug 10 μM, 72 hours, WST-1, OD450 nm, read-out: cell viability (survival rate), HL-60
[24] = read-out: cell viability (survival rate), H1650, drug 10 μM, 72 hours, WST-1, OD450 nm
[25] = read-out: cell viability (survival rate), A549, drug 10 μM, 72 hours, WST-1, OD450 nm
[26] = read-out: cell viability (survival rate), AGS, drug 10 μM, 72 hours, WST-1, OD450 nm
[27] = read-out: cell viability (survival rate), MKN-45, drug 10 μM, 72 hours, WST-1, OD450 nm
[28] = read-out: cell viability (survival rate), HepG2, drug 10 μM, 72 hours, WST-1, OD450 nm
[29] = read-out: cell viability (survival rate), A375, drug 10 μM, 72 hours, WST-1, OD450 nm
[30] = read-out: cell viability (survival rate), HeLa, drug 10 μM, 72 hours, WST-1, OD450 nm
[31] = read-out: cell viability (survival rate), PC3, drug 10 μM, 72 hours, WST-1, OD450 nm
[32] = read-out: cell viability (survival rate), TSGH, drug 10 μM, 72 hours, WST-1, OD450 nm
[33] = read-out: cell viability (survival rate), MCF7, drug 10 μM, 72 hours, WST-1, OD450 nm
[34] = read-out: cell viability (survival rate), HL-60, drug 10 μM, 72 hours, WST-1, OD450 nm

CN1CCC(=C2c3ccccc3CCc3cccnc32)CC1 [Azatadine dimaleate]
inhibition effect on different cancer cell lines (cancer cell lines): significant inhibition effect
viability at 10 µM [1, 13]: 48.5%
viability at 10 µM [2, 14]: 123%
viability at 10 µM [3, 15]: 67.1%
viability at 10 µM [4, 16]: 83.4%
viability at 10 µM [5, 17]: 84.5%
viability at 10 µM [6]: 95.7%
viability at 10 µM [7, 18]: 40.7%
viability at 10 µM [8, 19]: 72.2%
viability at 10 µM [9, 20]: 104%
viability at 10 µM [10, 21]: 78.5%
viability at 10 µM [11, 22]: 79.7%
viability at 10 µM [12, 23]: 113%

COc1ncnc(NS(=O)(=O)c2ccc(N)cc2)c1OC [Sulfadoxine (Sulphadoxine), Sulfadoxine]
inhibition effect on different cancer cell lines (cancer cell lines): significant inhibition effect
viability at 10 µM [1, 13]: 62.2%
viability at 10 µM [2, 14]: 96.6%
viability at 10 µM [3, 15]: 91.1%
viability at 10 µM [4, 16]: 87.4%
viability at 10 µM [5, 17]: 90.5%
viability at 10 µM [6]: 92.9%
viability at 10 µM [7, 18]: 65.5%
viability at 10 µM [8, 19]: 78.2%
viability at 10 µM [9, 20]: 119%
viability at 10 µM [10, 21]: 64.3%
viability at 10 µM [11, 22]: 132%
viability at 10 µM [12, 23]: 111%

CCCCCCCCCCCCCCCCCCCCCCO [Docosanol (Abreva), Docosanol]
inhibition effect on different cancer cell lines (cancer cell lines): significant inhibition effect
viability at 10 µM [1, 13]: 69.3%
viability at 10 µM [2, 14]: 44%
viability at 10 µM [3, 15]: 40.6%
viability at 10 µM [4, 16]: 52.4%
viability at 10 µM [5, 17]: 83.6%
viability at 10 µM [6]: 89.4%
viability at 10 µM [7, 18]: 84.6%
viability at 10 µM [8, 19]: 76.9%
viability at 10 µM [9, 20]: 70.2%
viability at 10 µM [10, 21]: 54.8%
viability at 10 µM [11, 22]: 39.1%
viability at 10 µM [12, 23]: 116%

O=C(N/N=C/c1ccc([N+](=O)[O-])o1)c1ccc(O)cc1 [Nifuroxazide]
inhibition effect on different cancer cell lines (cancer cell lines): significant inhibition effect
viability at 10 µM [1, 24]: 57.6%
viability at 10 µM [2, 25]: 33.2%
viability at 10 µM [3, 26]: 36.7%
viability at 10 µM [4, 27]: 51%
viability at 10 µM [5, 28]: 73%
viability at 10 µM [6]: 58.3%
viability at 10 µM [7, 29]: 51.6%
viability at 10 µM [8, 30]: 66.6%
viability at 10 µM [9, 31]: 92%
viability at 10 µM [10, 32]: 56.2%
viability at 10 µM [11, 33]: 80.1%
viability at 10 µM [12, 34]: 38.8%

CCOC(=O)n1ccn(C)c1=S [Carbimazole]
inhibition effect on different cancer cell lines (cancer cell lines): significant inhibition effect
viability at 10 µM [1, 24]: 80.9%
viability at 10 µM [2, 25]: 73.9%
viability at 10 µM [3, 26]: 114%
viability at 10 µM [4, 27]: 131%
viability at 10 µM [5, 28]: 97.2%
viability at 10 µM [6]: 75%
viability at 10 µM [7, 29]: 65.1%
viability at 10 µM [8, 30]: 90.3%
viability at 10 µM [9, 31]: 95.6%
viability at 10 µM [10, 32]: 117%
viability at 10 µM [11, 33]: 102%
viability at 10 µM [12, 34]: 80.1%

[H]/N=C(/N)N[C@H]1[C@H](O)[C@@H](O)[C@H](O[C@@H]2O[C@@H](C)[C@](O)(C=O)[C@H]2O[C@@H]2O[C@@H](CO)[C@H](O)[C@@H](O)[C@@H]2NC)[C@@H](N/C(N)=N\[H])[C@@H]1O [Streptomycin sulfate]
inhibition effect on different cancer cell lines (cancer cell lines): significant inhibition effect
viability at 10 µM [1, 24]: 40.6%
viability at 10 µM [2, 25]: 57.3%
viability at 10 µM [3, 26]: 65.5%
viability at 10 µM [4, 27]: 68.7%
viability at 10 µM [5, 28]: 84.5%
viability at 10 µM [6]: 46.6%
viability at 10 µM [7, 29]: 77.5%
viability at 10 µM [8, 30]: 88.9%
viability at 10 µM [9, 31]: 59.1%
viability at 10 µM [10, 32]: 23.3%
viability at 10 µM [11, 33]: 72%
viability at 10 µM [12, 34]: 93.3%

C[C@@H](O)[C@H]1C(=O)N2C(C(=O)O)=C(S[C@@H]3CN[C@H](C(=O)N(C)C)C3)[C@H](C)[C@H]12 [Meropenem]
inhibition effect on different cancer cell lines (cancer cell lines): significant inhibition effect
viability at 10 µM [1, 13]: 55.4%
viability at 10 µM [2, 14]: 46%
viability at 10 µM [3, 15]: 68.3%
viability at 10 µM [4, 16]: 84.9%
viability at 10 µM [5, 17]: 99.3%
viability at 10 µM [6]: 87.3%
viability at 10 µM [7, 18]: 65.1%
viability at 10 µM [8, 19]: 111%
viability at 10 µM [9, 20]: 70.7%
viability at 10 µM [10, 21]: 132%
viability at 10 µM [11, 22]: 68.1%
viability at 10 µM [12, 23]: 102%

C[C@@H]1CN(c2c(F)c(F)c3c(=O)c(C(=O)O)cn(C4CC4)c3c2F)C[C@H](C)N1 [Orbifloxacin]
inhibition effect on different cancer cell lines (cancer cell lines): significant inhibition effect
viability at 10 µM [1, 13]: 63.7%
viability at 10 µM [2, 14]: 44.2%
viability at 10 µM [3, 15]: 84.5%
viability at 10 µM [4, 16]: 44.1%
viability at 10 µM [5, 17]: 84.2%
viability at 10 µM [6]: 75.4%
viability at 10 µM [7, 18]: 55.6%
viability at 10 µM [8, 19]: 66.8%
viability at 10 µM [9, 20]: 51.1%
viability at 10 µM [10, 21]: 44.3%
viability at 10 µM [11, 22]: 33.3%
viability at 10 µM [12, 23]: 92.3%

O=C(O)c1cn(-c2ccc(F)cc2)c2cc(N3CCNCC3)c(F)cc2c1=O [Sarafloxacin HCl]
inhibition effect on different cancer cell lines (cancer cell lines): significant inhibition effect
viability at 10 µM [1, 13]: 58.9%
viability at 10 µM [2, 14]: 98.6%
viability at 10 µM [3, 15]: 88%
viability at 10 µM [4, 16]: 75.3%
viability at 10 µM [5, 17]: 91.1%
viability at 10 µM [6]: 106%
viability at 10 µM [7, 18]: 97.8%
viability at 10 µM [8, 19]: 81%
viability at 10 µM [9, 20]: 80.9%
viability at 10 µM [10, 21]: 122%
viability at 10 µM [11, 22]: 107%
viability at 10 µM [12, 23]: 112%

Nc1nc2c(ncn2CCC(CO)CO)c(=O)[nH]1 [Penciclovir]
inhibition effect on different cancer cell lines (cancer cell lines): significant inhibition effect
viability at 10 µM [1, 24]: 71.5%
viability at 10 µM [2, 25]: 74.7%
viability at 10 µM [3, 26]: 71%
viability at 10 µM [4, 27]: 98.5%
viability at 10 µM [5, 28]: 95.7%
viability at 10 µM [6]: 98.5%
viability at 10 µM [7, 29]: 64.2%
viability at 10 µM [8, 30]: 81.7%
viability at 10 µM [9, 31]: 106%
viability at 10 µM [10, 32]: 79.1%
viability at 10 µM [11, 33]: 110%
viability at 10 µM [12, 34]: 114%

Cc1cccc(C(C)c2cnc[nH]2)c1C (stereo not drawn) [Medetomidine HCl]
inhibition effect on different cancer cell lines (cancer cell lines): significant inhibition effect
viability at 10 µM [1, 24]: 49.8%
viability at 10 µM [2, 25]: 73.7%
viability at 10 µM [3, 26]: 108%
viability at 10 µM [4, 27]: 37.4%
viability at 10 µM [5, 28]: 91.9%
viability at 10 µM [6]: 79.4%
viability at 10 µM [7, 29]: 59.7%
viability at 10 µM [8, 30]: 78.4%
viability at 10 µM [9, 31]: 65.6%
viability at 10 µM [10, 32]: 104%
viability at 10 µM [11, 33]: 72.3%
viability at 10 µM [12, 34]: 84.5%

O=C(O)Cc1ccccc1Nc1c(Cl)cccc1Cl [Diclofenac Potassium]
inhibition effect on different cancer cell lines (cancer cell lines): significant inhibition effect
viability at 10 µM [1, 24]: 43.9%
viability at 10 µM [2, 25]: 81.7%
viability at 10 µM [3, 26]: 91.4%
viability at 10 µM [4, 27]: 40.5%
viability at 10 µM [5, 28]: 107%
viability at 10 µM [6]: 85%
viability at 10 µM [7, 29]: 51.5%
viability at 10 µM [8, 30]: 76.1%
viability at 10 µM [9, 31]: 63.3%
viability at 10 µM [10, 32]: 122%
viability at 10 µM [11, 33]: 76.3%
viability at 10 µM [12, 34]: 96.3%
